According to patent US10004701B2, “Methods and compositions for treating infection” (UNIVERSITY OF ROCHESTER, priority 2012, dated 2018):
Where a name gives a salt, the structure may show the parent alone. Read-outs that look alike come from different tables or passages of the source.

What was measured:
Assay in all cases: AK assay 384-well format, Prestwick library screening
E. faecium = format: cell-based, Enterococcus faecium; details: 50 μM final drug concentration; for fold induction at 50 µM: Enterococcus faecium, 3 h
[1] = system: S. aureus strain USA300-0114; format: cell-based, Staphylococcus aureus; details: 50 μM final drug concentration; for fold induction at 50 µM: Staphylococcus aureus, USA300, 3 h
K. pneumoniae = format: cell-based, Klebsiella pneumoniae; details: 50 μM final drug concentration; for fold induction at 50 µM: Klebsiella pneumoniae, 3 h
[2] = system: A. baumannii strain 98-37-09; format: cell-based, Acinetobacter baumannii; details: 50 μM final drug concentration; for fold induction at 50 µM: Acinetobacter baumannii, 983709, 3 h
P. aeruginosa = format: cell-based, Pseudomonas aeruginosa; details: 50 μM final drug concentration; for fold induction at 50 µM: Pseudomonas aeruginosa, 3 h
E. cloacae = format: cell-based, Enterobacter cloacae; details: 50 μM final drug concentration; for fold induction at 50 µM: Enterobacter cloacae, 3 h
E. coli = format: cell-based, Escherichia coli; details: 50 μM final drug concentration; for fold induction at 50 µM: Escherichia coli, 3 h
[3] = planktonic E. faecium, cutoff for positive-scoring molecules 3-fold increase, read-out: AK-based Prestwick Library Screening Results, E. faecium (increase in extracellular AK activity)
[4] = planktonic S. aureus, cutoff for positive-scoring molecules 3-fold increase, read-out: AK-based Prestwick Library Screening Results, S. aureus (increase in extracellular AK activity)
[5] = planktonic K. pneumoniae, cutoff for positive-scoring molecules 3-fold increase, read-out: AK-based Prestwick Library Screening Results, K. pneumoniae (increase in extracellular AK activity)
[6] = planktonic A. baumannii, cutoff for positive-scoring molecules 3-fold increase, read-out: AK-based Prestwick Library Screening Results, A. baumannii (increase in extracellular AK activity)
[7] = planktonic P. aeruginosa, cutoff for positive-scoring molecules 3-fold increase, read-out: AK-based Prestwick Library Screening Results, P. aeruginosa (increase in extracellular AK activity)
[8] = planktonic E. cloacae, cutoff for positive-scoring molecules 3-fold increase, read-out: AK-based Prestwick Library Screening Results, E. cloacae (increase in extracellular AK activity)
[9] = planktonic E. coli, cutoff for positive-scoring molecules 3-fold increase, read-out: AK-based Prestwick Library Screening Results, E. coli (increase in extracellular AK activity)

## O=C(O)CCCc1ccc(N(CCCl)CCCl)cc1 [Chlorambucil]
E. faecium; planktonic E. faecium, […], read-out: AK-based Prestwick library screening result, E. faecium (fold increase in extracellular AK activity)
  fold induction at 50 µM: 0.9
[1]; planktonic S. aureus, […], read-out: AK-based Prestwick library screening result, S. aureus (fold increase in extracellular AK activity)
  fold induction at 50 µM: 0.8
K. pneumoniae; planktonic K. pneumoniae, […], read-out: AK-based Prestwick library screening result, K. pneumoniae (fold increase in extracellular AK activity)
  fold induction at 50 µM: 0.7
[2]; planktonic A. baumannii, […], read-out: AK-based Prestwick library screening result, A. baumannii (fold increase in extracellular AK activity)
  fold induction at 50 µM: 0.9
P. aeruginosa; planktonic P. aeruginosa, […], read-out: AK-based Prestwick library screening result, P. aeruginosa (fold increase in extracellular AK activity)
  fold induction at 50 µM: 0.8
E. cloacae; planktonic E. cloacae, […], read-out: AK-based Prestwick library screening result, E. cloacae (fold increase in extracellular AK activity)
  fold induction at 50 µM: 1.2
E. coli; planktonic E. coli, […], read-out: AK-based Prestwick library screening result, E. coli (fold increase in extracellular AK activity)
  fold induction at 50 µM: 0.9

## CC(=O)Nc1ccc(OCC(O)CNC(C)C)cc1 (stereo not shown) [Practolol]
E. faecium; [3]
  fold induction at 50 µM: 0.9
[1]; [4]
  fold induction at 50 µM: 0.6
K. pneumoniae; [5]
  fold induction at 50 µM: 0.5
[2]; [6]
  fold induction at 50 µM: 0.7
P. aeruginosa; [7]
  fold induction at 50 µM: 0.6
E. cloacae; [8]
  fold induction at 50 µM: 0.8
E. coli; [9]
  fold induction at 50 µM: 0.7

## COc1cc2c(cc1O)[C@@H]1Cc3ccc(OC)c(O)c3CN1CC2 [Scoulerine]
E. faecium; planktonic, […], read-out: AK-based Prestwick Library Screening Results, E. faecium (fold increase in extracellular AK activity)
  fold induction at 50 µM: 1
[1]; planktonic, […], read-out: AK-based Prestwick Library Screening Results, S. aureus (fold increase in extracellular AK activity)
  fold induction at 50 µM: 1
K. pneumoniae; planktonic, […], read-out: AK-based Prestwick Library Screening Results, K. pneumoniae (fold increase in extracellular AK activity)
  fold induction at 50 µM: 1
[2]; planktonic, […], read-out: AK-based Prestwick Library Screening Results, A. baumannii (fold increase in extracellular AK activity)
  fold induction at 50 µM: 1.3
P. aeruginosa; planktonic, […], read-out: AK-based Prestwick Library Screening Results, P. aeruginosa (fold increase in extracellular AK activity)
  fold induction at 50 µM: 1.1
E. cloacae; planktonic, […], read-out: AK-based Prestwick Library Screening Results, E. cloacae (fold increase in extracellular AK activity)
  fold induction at 50 µM: 1.6
E. coli; planktonic, […], read-out: AK-based Prestwick Library Screening Results, E. coli (fold increase in extracellular AK activity)
  fold induction at 50 µM: 1.2

## Verteporfin
E. faecium; planktonic E. faecium, positive cutoff 3-fold increase
  AK-based Prestwick library screening result, E. faecium (fold increase in extracellular AK activity): 1.2
[1]; planktonic S. aureus, positive cutoff 3-fold increase
  AK-based Prestwick library screening result, S. aureus (fold increase in extracellular AK activity): 0.5
K. pneumoniae; planktonic K. pneumoniae, positive cutoff 3-fold increase
  AK-based Prestwick library screening result, K. pneumoniae (fold increase in extracellular AK activity): 0.8
[2]; planktonic A. baumannii, positive cutoff 3-fold increase
  AK-based Prestwick library screening result, A. baumannii (fold increase in extracellular AK activity): 0.9
P. aeruginosa; planktonic P. aeruginosa, positive cutoff 3-fold increase
  AK-based Prestwick library screening result, P. aeruginosa (fold increase in extracellular AK activity): 0.8
E. cloacae; planktonic E. cloacae, positive cutoff 3-fold increase
  AK-based Prestwick library screening result, E. cloacae (fold increase in extracellular AK activity): 1.6
E. coli; planktonic E. coli, positive cutoff 3-fold increase
  AK-based Prestwick library screening result, E. coli (fold increase in extracellular AK activity): 0.7

## CC(CCc1ccc(O)cc1)NCCc1ccc(O)c(O)c1 (stereo not shown) [Dobutamine hydrochloride]
E. faecium; [3]
  fold induction at 50 µM: 0.8
[1]; [4]
  fold induction at 50 µM: 0.1
K. pneumoniae; [5]
  fold induction at 50 µM: 0.8
[2]; [6]
  fold induction at 50 µM: 0.7
P. aeruginosa; [7]
  fold induction at 50 µM: 0.6
E. cloacae; [8]
  fold induction at 50 µM: 1.1
E. coli; [9]
  fold induction at 50 µM: 0.8

## C[C@@H]1C[C@H]2[C@@H]3CCC4=CC(=O)C=C[C@]4(C)[C@@]3(Cl)[C@@H](O)C[C@]2(C)[C@@]1(OC(=O)c1ccco1)C(=O)CCl [Mometasone furoate]
E. faecium; [3]
  fold induction at 50 µM: 1
[1]; [4]
  fold induction at 50 µM: 0.4
K. pneumoniae; [5]
  fold induction at 50 µM: 0.7
[2]; [6]
  fold induction at 50 µM: 0.9
P. aeruginosa; [7]
  fold induction at 50 µM: 0.6
E. cloacae; [8]
  fold induction at 50 µM: 0.9
E. coli; [9]
  fold induction at 50 µM: 0.9

## Clofilium tosylate
E. faecium; planktonic E. faecium, 384-well, cutoff for positive-scoring molecules 3-fold increase
  AK-based Prestwick Library Screening Results: E. faecium (increase in extracellular AK activity): 1.4
[1]; planktonic S. aureus, 384-well, cutoff for positive-scoring molecules 3-fold increase
  AK-based Prestwick Library Screening Results: S. aureus (increase in extracellular AK activity): 1.2
K. pneumoniae; planktonic K. pneumoniae, 384-well, cutoff for positive-scoring molecules 3-fold increase
  AK-based Prestwick Library Screening Results: K. pneumoniae (increase in extracellular AK activity): 1.5
[2]; planktonic A. baumannii, 384-well, cutoff for positive-scoring molecules 3-fold increase
  AK-based Prestwick Library Screening Results: A. baumannii (increase in extracellular AK activity): 1.6
P. aeruginosa; planktonic P. aeruginosa, 384-well, cutoff for positive-scoring molecules 3-fold increase
  AK-based Prestwick Library Screening Results: P. aeruginosa (increase in extracellular AK activity): 1.3
E. cloacae; planktonic E. cloacae, 384-well, cutoff for positive-scoring molecules 3-fold increase
  AK-based Prestwick Library Screening Results: E. cloacae (increase in extracellular AK activity): 1.2
E. coli; planktonic E. coli, 384-well, cutoff for positive-scoring molecules 3-fold increase
  AK-based Prestwick Library Screening Results: E. coli (increase in extracellular AK activity): 1.5

## CCN(CC)CCNC(=O)c1ccc(N)cc1 [Procainamide hydrochloride]
E. faecium; [3]
  fold induction at 50 µM: 1
[1]; [4]
  fold induction at 50 µM: 0.6
K. pneumoniae; [5]
  fold induction at 50 µM: 0.6
[2]; [6]
  fold induction at 50 µM: 0.7
P. aeruginosa; [7]
  fold induction at 50 µM: 0.6
E. cloacae; [8]
  fold induction at 50 µM: 0.9
E. coli; [9]
  fold induction at 50 µM: 0.6

## NS(=O)(=O)c1cc2c(cc1C(F)(F)F)NCNS2(=O)=O [Hydroflumethiazide]
E. faecium; 384-well format, cutoff for positive-scoring molecules 3-fold increase, read-out: AK-based Prestwick Library Screening Results, E. faecium (increase in extracellular AK activity)
  fold induction at 50 µM: 0.9
[1]; 384-well format, cutoff for positive-scoring molecules 3-fold increase, read-out: AK-based Prestwick Library Screening Results, S. aureus (increase in extracellular AK activity)
  fold induction at 50 µM: 0.5
K. pneumoniae; 384-well format, cutoff for positive-scoring molecules 3-fold increase, read-out: AK-based Prestwick Library Screening Results, K. pneumoniae (increase in extracellular AK activity)
  fold induction at 50 µM: 0.5
[2]; 384-well format, cutoff for positive-scoring molecules 3-fold increase, read-out: AK-based Prestwick Library Screening Results, A. baumannii (increase in extracellular AK activity)
  fold induction at 50 µM: 0.7
P. aeruginosa; 384-well format, cutoff for positive-scoring molecules 3-fold increase, read-out: AK-based Prestwick Library Screening Results, P. aeruginosa (increase in extracellular AK activity)
  fold induction at 50 µM: 0.5
E. cloacae; 384-well format, cutoff for positive-scoring molecules 3-fold increase, read-out: AK-based Prestwick Library Screening Results, E. cloacae (increase in extracellular AK activity)
  fold induction at 50 µM: 0.7
E. coli; 384-well format, cutoff for positive-scoring molecules 3-fold increase, read-out: AK-based Prestwick Library Screening Results, E. coli (increase in extracellular AK activity)
  fold induction at 50 µM: 0.7

## Nc1nc2ncc(CNc3ccc(C(=O)N[C@@H](CCC(=O)O)C(=O)O)cc3)nc2c(=O)[nH]1 [Folic acid]
E. faecium; planktonic, cutoff for positive 3-fold increase, read-out: AK-based Prestwick Library Screening Results, E. faecium (fold increase in extracellular AK activity)
  fold induction at 50 µM: 1.1
[1]; planktonic, cutoff for positive 3-fold increase, read-out: AK-based Prestwick Library Screening Results, S. aureus (fold increase in extracellular AK activity)
  fold induction at 50 µM: 1
K. pneumoniae; planktonic, cutoff for positive 3-fold increase, read-out: AK-based Prestwick Library Screening Results, K. pneumoniae (fold increase in extracellular AK activity)
  fold induction at 50 µM: 1
[2]; planktonic, cutoff for positive 3-fold increase, read-out: AK-based Prestwick Library Screening Results, A. baumannii (fold increase in extracellular AK activity)
  fold induction at 50 µM: 1.3
P. aeruginosa; planktonic, cutoff for positive 3-fold increase, read-out: AK-based Prestwick Library Screening Results, P. aeruginosa (fold increase in extracellular AK activity)
  fold induction at 50 µM: 1.1
E. cloacae; planktonic, cutoff for positive 3-fold increase, read-out: AK-based Prestwick Library Screening Results, E. cloacae (fold increase in extracellular AK activity)
  fold induction at 50 µM: 1.3
E. coli; planktonic, cutoff for positive 3-fold increase, read-out: AK-based Prestwick Library Screening Results, E. coli (fold increase in extracellular AK activity)
  fold induction at 50 µM: 1.3
